This note sets out measurements from patent US20070249603A1, “3-Arylsulfonyl-Quinolines as 5-Ht6 Receptor Antagonists for the Treatment of Cns Disorders” (priority 2004, published 2007).

Each structure is given as a SMILES string. Where a name gives a salt, the structure may show the parent alone.

The assay concerns the target T1, human cloned 5-HT6 receptors (Homo sapiens, UniProt P50406).
T1 construct: expressed in transfected cells; host or cells: HeLa cells expressing cloned 5-HT6 receptor (membranes)
Nature of the assay: Cyclase assay (cAMP production in membranes of HeLa 5HT6 cells, antagonism of 5-HT). Type of assay: biochemical. Particulars: antagonist potency, 5-HT at 4×EC50, functional Ki by Cheng-Prusoff from IC50, read-out: fpKi (negative log10 of the molar functional Ki) (converted). As to the method: Compounds of the invention may be tested for in vitro biological activity in accordance with the following cyclase assay:
0.5 μl of test compound in 100% dimethylsulfoxide (DMSO) was added to a white, solid 384 well assay plate (for dose response measurements the top of the concentration range is 7.5 μM final). […]
cAMP production was then measured using the DiscoveRx™ HitHunter™ chemiluminescence cAMP assay kit (DiscoveRx Corporation, 42501 Albrae Street, Fremont, Calif. 94538; Product Code: 90-0004L) or any other suitable cAMP measurement assay.
IC50 values were estimated from arbitrary designated unit (ADU) measurements from a Perkin Elmer Viewlux instrument using a four parameter logistic curve fit within EXCEL (Bowen, W. P. and Jerman, J. C. (1995), Nonlinear regression using spreadsheets. Trends in Pharmacol. Sci., 16, 413-417). Functional Ki values were calculated using the method of Cheng, Y. C. and Prussof, W. H. (Biochemical Pharmacol (1973) 22 3099-3108). pI50 and fpKi are the negative log10 of the molar IC50 and functional Ki respectively.
A general note: cAMP levels reflect the balance of adenylyl cyclase and phosphodiesterase activity.

T1 sequence (P50406 whole entry): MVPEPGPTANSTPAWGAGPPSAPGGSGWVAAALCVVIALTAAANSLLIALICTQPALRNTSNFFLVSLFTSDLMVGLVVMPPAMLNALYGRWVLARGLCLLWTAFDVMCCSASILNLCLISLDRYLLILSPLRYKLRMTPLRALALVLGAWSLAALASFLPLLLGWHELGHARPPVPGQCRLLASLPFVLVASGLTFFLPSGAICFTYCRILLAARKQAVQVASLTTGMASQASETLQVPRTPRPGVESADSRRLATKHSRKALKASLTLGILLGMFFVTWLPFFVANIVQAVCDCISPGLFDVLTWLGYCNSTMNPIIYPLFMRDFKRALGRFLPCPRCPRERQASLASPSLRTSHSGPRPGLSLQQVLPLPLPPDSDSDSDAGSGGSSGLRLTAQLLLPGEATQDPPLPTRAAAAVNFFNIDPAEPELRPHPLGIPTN

As to `CN(C)C1CCN(c2ccc(I)c3cc(S(=O)(=O)c4ccccc4)cnc23)CC1` [Example 13, 1-[5-Iodo-3-(phenylsulfonyl)-8-quinolinyl]-N,N-dimethyl-4-piperidinamine hydrochloride], the inhibition constant (Ki) (in general, the equilibrium dissociation constant of an inhibitor or competing ligand from its target) is 158 nM.
